# Laboratory results from patent US20110124644A1, “METHODS OF DIAGNOSING AND CHARACTERIZING CANNABINOID SIGNALING IN CROHN'S DISEASE” (CEDARS-SINAI MEDICAL CENTER, priority 2008, published 2011).
# Assays:
# [1] = system: murine model of acute colitis (DSS, C3H/HeJ mice); experiment: Acute colitis model: dextran sodium sulfate (DSS) colitis; type: in vivo, mouse; conditions: 3.5% DSS; 1 mg/kg i.p. from two days before DSS, then every other day
# Description: FIG. 11 (a) depicts, in accordance with an embodiment herein, the effect of CB2 agonist on murine model of acute colitis. Groups of 5 wildtype C3H/HeJ mice were challenged with either DSS 3.5% or acidified water and injected intraperitoneally with CB2 agonist (AM1241(AM)) or antagonist (SR144928 (SR)) or vehicle control (DMSO (D) for AM1241, or EtOH (E) for SR144928) and monitored for weight loss. Intestinal sections were scored histologically at day 10. (b) and (c.) depicts the comparison of DSS colitis in CB2−/− and WT mice, with (b) weight loss and (c) histologic scoring. This is representative of three or more independent experiments.
# 3.5% Dextran sulfate sodium (prepared in acidified drinking water) was obtained from MP Biomedicals, Inc (Solon, Ohio). Acidified drinking water of colitis-induced mice was replaced with DSS solution for a total of eight days. Controls were given standard acidified drinking water. All mice were sacrificed on day 12, at which time the DSS-treated mice had lost approximately 20% of their body weight. Experiments were performed in duplicate, with groups of 6 mice in each treatment arm. AM1241 (Sigma-Aldrich, MO, in DMSO, 1 mg/mL) was suspended in 250 μL sterile 0.9% saline and injected intraperitoneally (i.p.) at a dose of 1 mg/kg beginning two days prior to the administration of DSS (or acidified drinking water in the control group) and then every other day until the mice were euthanized. […]
# Colitis was quantified by both weight loss and histology of intestinal sections. […] Each section was then scored by one blinded pathologist using a standard experimental colitis scoring system.
# The effect of CB2-specific agonist in the setting of acute colitis was evaluated using dextran sodium sulfate (DSS), an ingested agent which induces acute, non-T cell mediated colitis (weight loss and bloody diarrhea) within three to five days. Mice were pre-treated with AM1241 or vehicle control, and then monitored for the level of acute colitis induced by DSS ingestion. […]
# [2] = system: murine model of immune colitis (Rag1 −/− mice); experiment: Immune colitis model: transfer of Gαi2−/− T cells into Rag1 −/− mice; type: in vivo, mouse; conditions: i.p. every other day, vs DMSO vehicle
# [3] = system: CB2 receptor; experiment: CB2 agonist (AM1241) inhibition of forskolin-stimulated cAMP production in patient lymphoblastoid cell lines, ELISA; type: cell-based, human; conditions: 250 nM AM1241; 25 nM forskolin; Crohn's disease patient LCLs
# Protocol: FIG. 7 depicts, in accordance with an embodiment herein, CB2 receptor protein expression and function. Flow cytometry data derived from staining of 40 Crohn's disease patient lymphoblastoid cell lines with monoclonal CB2 receptor (IgG2A) was generated. LCLs from patients with Crohn's disease were grown in culture and plated 1×10^6 per well on a 96 well plate. These cells were then incubated for 20 minutes with 10 mM IBMX, a phosphodiesterase inhibitor, and washed. Cells were incubated in the presence of various concentrations of forskolin or media control with or without the addition of 250 nM AM1241. Samples were run in triplicate. […] Plates were frozen at −20 degrees and lysates assayed the following day for cAMP concentration using a commercial ELISA kit (R and D) and microwell ELISA plate reader.
# A CNR2 candidate gene case-control analysis was performed with 449 patients with Crohn's disease, 215 with ulcerative colitis, and 201 controls. […] EBV immortalized lymphoblastoid cell lines (LCLs) were analyzed for CB2 receptor by flow cytometry, and for CB2 receptor function (Gi-mediated adenylate cyclase inhibition) by CB2 agonist (AM1241) inhibition of forskolin-stimulated cAMP production, measured by ELISA.
# To assess the LCL response to CB2 specific agonist, intracellular cAMP was quantified using a standard ELISA kit (R and D Systems). […]
Compound,DSS colitis severity compared to vehicle control [1],weight loss compared to vehicle control ([2]; Rag1 −/− mice after Gαi2−/− T cell transfer),quantitative histologic scoring of intestinal inflammation compared to vehicle control ([2]; sacrificed 8 weeks after T cell transfer),inhibition of forskolin-stimulated adenylate cyclase-dependent cAMP response [3]
COc1ccc(C(=O)c2c(C)n(CCN3CCOCC3)c3cc(I)ccc23)cc1 [AM630],reduced DSS colitis severity,,,
CN1CCCCC1Cn1cc(C(=O)c2cc([N+](=O)[O-])ccc2I)c2ccccc21 (stereo not drawn) [AM1241],significantly more severe,lost significantly less weight,dramatically reduced for inflammation,approximately 55%
SR144528,ameliorated DSS colitis,,,
